Experimental data taken from paper PMC10382584, “Macrocyclization of linear molecules by deep learning to facilitate macrocyclic drug candidates discovery” (Nature Communications, 2023).

How the values were obtained:
Assay in all cases: biochemical
Design in all cases: DiscoveRx KINOMEscan competition binding, percent of DMSO control signal at 100 nM
Conditions in all cases: read-out: Fig. 4a / Percent Control / Compound 1; percent of DMSO control, competition binding
ROCK2 = ROCK2 (Homo sapiens, UniProt O75116)
BRAF = BRAF (Homo sapiens, UniProt P15056)
Sequence of BRAF (P15056 whole entry): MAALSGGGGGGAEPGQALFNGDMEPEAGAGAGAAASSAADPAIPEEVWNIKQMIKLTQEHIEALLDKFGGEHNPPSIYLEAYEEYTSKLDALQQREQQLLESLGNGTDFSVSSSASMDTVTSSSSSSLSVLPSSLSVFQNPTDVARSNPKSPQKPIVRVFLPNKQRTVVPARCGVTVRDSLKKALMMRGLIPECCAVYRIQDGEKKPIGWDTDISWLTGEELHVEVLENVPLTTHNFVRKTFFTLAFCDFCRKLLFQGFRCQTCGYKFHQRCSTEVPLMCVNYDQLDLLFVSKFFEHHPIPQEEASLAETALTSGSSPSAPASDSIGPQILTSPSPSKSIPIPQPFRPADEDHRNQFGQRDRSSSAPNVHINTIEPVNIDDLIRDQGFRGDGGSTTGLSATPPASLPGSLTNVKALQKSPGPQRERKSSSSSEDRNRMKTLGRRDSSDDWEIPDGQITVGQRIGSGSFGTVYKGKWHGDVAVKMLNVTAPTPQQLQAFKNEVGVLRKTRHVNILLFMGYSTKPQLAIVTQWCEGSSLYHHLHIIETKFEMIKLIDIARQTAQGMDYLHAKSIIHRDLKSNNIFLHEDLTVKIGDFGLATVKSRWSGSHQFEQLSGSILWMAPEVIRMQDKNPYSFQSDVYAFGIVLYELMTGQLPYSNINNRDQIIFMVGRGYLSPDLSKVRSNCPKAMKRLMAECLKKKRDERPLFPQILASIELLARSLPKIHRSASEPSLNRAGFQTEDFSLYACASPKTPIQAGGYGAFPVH

NDR2 = molecular target: T1, NDR2 (Homo sapiens, UniProt Q9Y2H1)
T1 construct: gene STK38L

ANKK1 = ANKK1 (Homo sapiens, UniProt Q8NFD2)
Sequence of ANKK1 (Q8NFD2 whole entry): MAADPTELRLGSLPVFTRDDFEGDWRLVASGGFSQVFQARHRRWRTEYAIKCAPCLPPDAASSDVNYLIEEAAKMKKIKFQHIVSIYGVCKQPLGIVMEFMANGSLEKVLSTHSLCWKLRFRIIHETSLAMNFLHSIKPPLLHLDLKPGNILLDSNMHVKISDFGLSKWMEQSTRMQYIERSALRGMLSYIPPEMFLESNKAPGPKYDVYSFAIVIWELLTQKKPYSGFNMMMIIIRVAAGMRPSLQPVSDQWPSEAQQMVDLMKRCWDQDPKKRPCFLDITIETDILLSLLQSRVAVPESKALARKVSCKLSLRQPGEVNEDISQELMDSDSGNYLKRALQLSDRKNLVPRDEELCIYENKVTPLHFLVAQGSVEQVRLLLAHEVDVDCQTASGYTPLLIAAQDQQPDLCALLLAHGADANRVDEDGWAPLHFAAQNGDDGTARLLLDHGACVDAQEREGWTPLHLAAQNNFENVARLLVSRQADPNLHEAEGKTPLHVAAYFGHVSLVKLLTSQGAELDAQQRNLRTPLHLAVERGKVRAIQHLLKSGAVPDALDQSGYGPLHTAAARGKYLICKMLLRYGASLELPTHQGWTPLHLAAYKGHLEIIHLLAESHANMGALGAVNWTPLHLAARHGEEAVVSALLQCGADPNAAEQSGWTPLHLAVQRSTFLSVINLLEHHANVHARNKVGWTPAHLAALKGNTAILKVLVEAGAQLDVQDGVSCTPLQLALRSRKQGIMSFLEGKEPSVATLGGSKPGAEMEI

SRMS = SRMS (Homo sapiens, UniProt Q9H3Y6)
Sequence of SRMS (Q9H3Y6 whole entry): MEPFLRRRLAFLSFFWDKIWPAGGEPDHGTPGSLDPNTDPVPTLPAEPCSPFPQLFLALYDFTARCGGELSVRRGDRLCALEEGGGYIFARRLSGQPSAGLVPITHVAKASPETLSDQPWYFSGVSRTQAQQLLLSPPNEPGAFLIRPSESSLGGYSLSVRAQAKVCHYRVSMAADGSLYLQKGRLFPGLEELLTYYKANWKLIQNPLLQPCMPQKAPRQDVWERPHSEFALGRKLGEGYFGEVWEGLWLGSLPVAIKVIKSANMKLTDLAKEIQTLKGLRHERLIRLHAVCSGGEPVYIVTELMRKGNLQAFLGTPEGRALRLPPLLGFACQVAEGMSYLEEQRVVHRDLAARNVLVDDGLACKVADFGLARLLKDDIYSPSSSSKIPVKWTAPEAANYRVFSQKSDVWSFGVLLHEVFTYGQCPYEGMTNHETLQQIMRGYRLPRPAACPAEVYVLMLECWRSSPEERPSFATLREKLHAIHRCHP

CSNK1A1L = CSNK1A1L (Homo sapiens, UniProt Q8N752)
MEK3 = molecular target: T2, MEK3 (Homo sapiens, UniProt P46734)
T2 construct: gene MAP2K3
T2 sequence (P46734 whole entry): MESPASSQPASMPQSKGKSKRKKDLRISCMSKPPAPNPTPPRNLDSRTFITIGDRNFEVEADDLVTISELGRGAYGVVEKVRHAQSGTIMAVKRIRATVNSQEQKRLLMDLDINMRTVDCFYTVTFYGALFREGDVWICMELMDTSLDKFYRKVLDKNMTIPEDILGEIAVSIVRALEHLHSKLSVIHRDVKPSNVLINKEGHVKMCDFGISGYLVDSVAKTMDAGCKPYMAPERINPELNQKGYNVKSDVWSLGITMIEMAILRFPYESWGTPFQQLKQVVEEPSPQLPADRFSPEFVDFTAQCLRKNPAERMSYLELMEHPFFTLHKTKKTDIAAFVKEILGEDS

VPS34 = molecular target: T3, VPS34 (Homo sapiens, UniProt Q8NEB9)
T3 construct: gene PIK3C3

CHEK2 = CHEK2 (Homo sapiens, UniProt O96017)
INSRR = INSRR (Homo sapiens, UniProt P14616)
RIOK3 = RIOK3 (Homo sapiens, UniProt O14730)
BMPR1B = BMPR1B (Homo sapiens, UniProt O00238)
Sequence of BMPR1B (O00238 whole entry): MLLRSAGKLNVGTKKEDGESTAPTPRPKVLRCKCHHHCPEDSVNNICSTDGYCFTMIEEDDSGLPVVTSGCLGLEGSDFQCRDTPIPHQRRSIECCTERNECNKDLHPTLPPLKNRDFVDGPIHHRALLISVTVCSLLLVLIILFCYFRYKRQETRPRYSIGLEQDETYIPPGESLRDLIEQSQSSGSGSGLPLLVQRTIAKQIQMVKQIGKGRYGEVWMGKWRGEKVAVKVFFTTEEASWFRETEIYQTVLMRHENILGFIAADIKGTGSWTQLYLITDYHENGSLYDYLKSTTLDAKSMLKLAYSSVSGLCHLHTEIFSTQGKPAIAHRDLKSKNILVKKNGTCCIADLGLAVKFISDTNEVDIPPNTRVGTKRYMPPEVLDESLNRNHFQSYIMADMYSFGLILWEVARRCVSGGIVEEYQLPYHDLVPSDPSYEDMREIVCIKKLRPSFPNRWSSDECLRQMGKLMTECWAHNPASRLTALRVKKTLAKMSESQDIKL

p38-delta = molecular target: T4, p38-delta (Homo sapiens, UniProt O15264)
T4 construct: gene MAPK13
T4 sequence (O15264 whole entry): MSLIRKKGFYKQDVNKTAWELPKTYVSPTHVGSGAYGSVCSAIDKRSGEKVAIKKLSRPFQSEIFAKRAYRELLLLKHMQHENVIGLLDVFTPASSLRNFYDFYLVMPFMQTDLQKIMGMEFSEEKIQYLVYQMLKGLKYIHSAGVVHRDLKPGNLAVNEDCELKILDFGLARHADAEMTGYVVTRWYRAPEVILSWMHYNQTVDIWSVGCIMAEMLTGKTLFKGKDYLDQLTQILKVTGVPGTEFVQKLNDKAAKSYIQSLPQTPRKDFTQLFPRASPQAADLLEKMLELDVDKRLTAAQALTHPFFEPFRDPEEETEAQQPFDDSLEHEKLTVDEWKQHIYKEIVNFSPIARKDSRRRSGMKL

MYLK = MYLK (Homo sapiens, UniProt Q15746)
PDGFRB = PDGFRB (Homo sapiens, UniProt P09619)
SNARK = molecular target: T5, SNARK (Homo sapiens, UniProt Q9H093)
T5 construct: gene NUAK2

EPHA2 = EPHA2 (Homo sapiens, UniProt P29317)
MKNK2 = MKNK2 (Homo sapiens, UniProt Q9HBH9)
Sequence of MKNK2 (Q9HBH9 whole entry): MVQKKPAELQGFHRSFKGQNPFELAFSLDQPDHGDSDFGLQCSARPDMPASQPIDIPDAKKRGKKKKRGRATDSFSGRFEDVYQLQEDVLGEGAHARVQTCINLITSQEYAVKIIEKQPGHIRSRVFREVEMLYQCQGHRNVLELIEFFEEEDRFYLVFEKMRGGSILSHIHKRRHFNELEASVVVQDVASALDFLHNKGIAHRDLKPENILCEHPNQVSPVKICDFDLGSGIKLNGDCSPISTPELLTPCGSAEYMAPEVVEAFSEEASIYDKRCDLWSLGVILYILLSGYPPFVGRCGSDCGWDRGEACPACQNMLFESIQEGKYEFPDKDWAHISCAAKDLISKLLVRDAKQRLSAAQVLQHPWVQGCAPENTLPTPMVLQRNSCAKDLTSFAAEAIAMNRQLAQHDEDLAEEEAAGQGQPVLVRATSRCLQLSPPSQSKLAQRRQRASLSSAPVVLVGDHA

FLT3(D835H) = FLT3(D835H) (Homo sapiens, UniProt P36888, D835H)
BRK = molecular target: T6, BRK (Homo sapiens, UniProt Q13882)
T6 construct: gene PTK6

SRPK2 = SRPK2 (Homo sapiens, UniProt P78362)
ABL1-nonphosphorylated = molecular target: T7, ABL1-nonphosphorylated (Homo sapiens, UniProt P00519)
T7 construct: nonphosphorylated

AXL = AXL (Homo sapiens, UniProt P30530)
YSK4 = molecular target: T8, YSK4 (Homo sapiens, UniProt Q56UN5)
T8 construct: gene MAP3K19
T8 sequence (Q56UN5 whole entry): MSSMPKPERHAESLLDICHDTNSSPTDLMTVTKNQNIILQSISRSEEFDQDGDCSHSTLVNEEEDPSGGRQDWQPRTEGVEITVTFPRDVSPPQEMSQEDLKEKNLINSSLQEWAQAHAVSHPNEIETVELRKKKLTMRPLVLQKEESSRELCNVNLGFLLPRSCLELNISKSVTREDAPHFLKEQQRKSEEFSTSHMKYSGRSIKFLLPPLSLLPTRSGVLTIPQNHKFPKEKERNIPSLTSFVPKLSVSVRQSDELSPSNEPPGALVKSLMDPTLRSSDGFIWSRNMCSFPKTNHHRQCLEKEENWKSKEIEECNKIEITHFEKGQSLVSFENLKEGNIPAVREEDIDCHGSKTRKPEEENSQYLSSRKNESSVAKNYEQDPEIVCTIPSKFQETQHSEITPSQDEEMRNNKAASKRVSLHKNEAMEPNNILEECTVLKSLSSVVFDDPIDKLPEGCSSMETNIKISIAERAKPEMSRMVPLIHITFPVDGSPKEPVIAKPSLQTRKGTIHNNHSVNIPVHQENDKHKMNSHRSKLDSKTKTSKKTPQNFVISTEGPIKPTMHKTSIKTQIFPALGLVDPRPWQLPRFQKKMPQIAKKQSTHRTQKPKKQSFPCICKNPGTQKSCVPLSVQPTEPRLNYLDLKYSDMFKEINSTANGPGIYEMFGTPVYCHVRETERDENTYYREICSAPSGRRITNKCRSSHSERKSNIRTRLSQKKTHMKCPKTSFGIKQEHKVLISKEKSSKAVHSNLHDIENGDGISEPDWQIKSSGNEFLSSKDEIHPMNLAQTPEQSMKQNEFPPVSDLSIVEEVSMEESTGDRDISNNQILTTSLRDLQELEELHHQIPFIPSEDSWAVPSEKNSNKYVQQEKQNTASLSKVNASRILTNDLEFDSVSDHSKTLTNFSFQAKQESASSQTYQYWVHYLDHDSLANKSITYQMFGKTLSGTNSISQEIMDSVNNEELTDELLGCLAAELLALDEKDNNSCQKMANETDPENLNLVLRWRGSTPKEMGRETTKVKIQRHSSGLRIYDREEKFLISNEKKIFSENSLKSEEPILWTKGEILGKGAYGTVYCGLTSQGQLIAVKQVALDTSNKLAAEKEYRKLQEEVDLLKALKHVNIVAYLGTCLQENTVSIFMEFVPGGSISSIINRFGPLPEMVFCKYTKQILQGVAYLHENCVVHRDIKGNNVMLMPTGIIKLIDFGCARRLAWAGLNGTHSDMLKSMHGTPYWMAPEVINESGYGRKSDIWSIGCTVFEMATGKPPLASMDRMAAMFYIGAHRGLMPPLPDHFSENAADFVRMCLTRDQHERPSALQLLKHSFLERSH

ACVR2A = ACVR2A (Homo sapiens, UniProt P27037)
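Further: KINOMEscan kinase panel binding assay, signal normalized between DMSO as 100% and a positive control compound as 0%.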

Q: Which results are given for `Cc1cnc2nc1Nc1cccc(c1)COCc1cc(ccc1OCCN1CCCC1)N2` [Compound 1]?
A: remaining binding at 0.1 µM (ROCK2): 83%; remaining binding at 0.1 µM (BRAF): 93%; remaining binding at 0.1 µM (NDR2): 92%; remaining binding at 0.1 µM (ANKK1): 86%; remaining binding at 0.1 µM (SRMS): 75%; remaining binding at 0.1 µM (CSNK1A1L): 61%; remaining binding at 0.1 µM (MEK3): 76%; remaining binding at 0.1 µM (VPS34): 27%; remaining binding at 0.1 µM (CHEK2): 87%; remaining binding at 0.1 µM (INSRR): 89%; remaining binding at 0.1 µM (RIOK3): 79%; remaining binding at 0.1 µM (BMPR1B): 63%; remaining binding at 0.1 µM (p38-delta): 100%; remaining binding at 0.1 µM (MYLK): 93%; remaining binding at 0.1 µM (PDGFRB): 51%; remaining binding at 0.1 µM (SNARK): 36%; remaining binding at 0.1 µM (EPHA2): 82%; remaining binding at 0.1 µM (MKNK2): 67%; remaining binding at 0.1 µM (FLT3(D835H)): 46%; remaining binding at 0.1 µM (BRK): 98%; remaining binding at 0.1 µM (SRPK2): 100%; remaining binding at 0.1 µM (ABL1-nonphosphorylated): 55%; remaining binding at 0.1 µM (AXL): 90%; remaining binding at 0.1 µM (YSK4): 11%; remaining binding at 0.1 µM (ACVR2A): 99%
